Test results published in US10865207B2, “Compounds for imaging Tau protein aggregates” (AC IMMUNE S.A., priority 2016, dated 2020).
Marks after values point to notes of the source that are not given here.

Legend:
amyloid-beta = amyloid-beta (Homo sapiens, UniProt P05067); test: Competition binding to amyloid-beta in AD brain homogenate; details: for IC50: fluorine-19 derivatives
Procedure: (§1) 20 μg of human Alzheimer disease brain homogenate was incubated with a dilution series of each test compound (1000 to 0.06 nM) in the presence of 800 Bq of ^18F-labeled beta-amyloid binder. The samples were shaken at 110 rpm for 45 min at 37° C. Samples were then filtered through GF/B 96 well filter plates and washed twice with 300 μL assay buffer (PBS containing 0.1% BSA and 2% DMSO). Thereafter, filter plates were sealed and a Fuji Film Imaging Plate (BAS-SR2025) was placed on top. The imaging plate was analyzed after overnight exposition using a Fuji Film BAS-5000. Non-specific signal was determined with samples containing ^18F-labeled beta-amyloid binder in the presence of assay buffer without brain substrate and competitor. […] The unblocked ^18F-labeled beta-amyloid binder signal was defined as total binding. IC50 values were calculated by Prism V6 (GraphPad) setting total binding to 100%.

Tau = Tau (Homo sapiens, UniProt P10636); test: Competition binding to Tau in human AD brain homogenate with 18F-labeled Tau binder; set-up: High affinity to Tau (grade): key: −: poor; ∘: moderate; +: good; ++: very good; +++: excellent; details: for IC50: human AD brain homogenate, determined with non-radioactive fluorine-19 derivatives
Chain of Tau (P10636 623-708 limits assumed): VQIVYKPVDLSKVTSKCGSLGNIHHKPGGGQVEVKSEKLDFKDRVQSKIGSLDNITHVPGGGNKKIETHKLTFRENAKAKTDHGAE
Procedure: as §1, with “of ^18F-labeled Tau binder. The” for “of ^18F-labeled beta-amyloid binder. The”, “containing ^18F-labeled Tau-reference binder in” for “containing ^18F-labeled beta-amyloid binder in”, “unblocked ^18F-labeled Tau-binder signal was” for “unblocked ^18F-labeled beta-amyloid binder signal was”

MAO B = target: T1, MAO B (Homo sapiens, UniProt P27338); test: MAO B 18F-fluoro deprenyl competition assay in human HC brain homogenate; format: binding; set-up: Low affinity to MAO B (grade): key: −: poor; ∘: moderate; +: good; ++: very good; +++: excellent
T1 construct: 20 μg of human brain homogenate (without AD pathology); from tissue; host or cells: human brain homogenate without AD pathology
T1 sequence (P27338 1-520): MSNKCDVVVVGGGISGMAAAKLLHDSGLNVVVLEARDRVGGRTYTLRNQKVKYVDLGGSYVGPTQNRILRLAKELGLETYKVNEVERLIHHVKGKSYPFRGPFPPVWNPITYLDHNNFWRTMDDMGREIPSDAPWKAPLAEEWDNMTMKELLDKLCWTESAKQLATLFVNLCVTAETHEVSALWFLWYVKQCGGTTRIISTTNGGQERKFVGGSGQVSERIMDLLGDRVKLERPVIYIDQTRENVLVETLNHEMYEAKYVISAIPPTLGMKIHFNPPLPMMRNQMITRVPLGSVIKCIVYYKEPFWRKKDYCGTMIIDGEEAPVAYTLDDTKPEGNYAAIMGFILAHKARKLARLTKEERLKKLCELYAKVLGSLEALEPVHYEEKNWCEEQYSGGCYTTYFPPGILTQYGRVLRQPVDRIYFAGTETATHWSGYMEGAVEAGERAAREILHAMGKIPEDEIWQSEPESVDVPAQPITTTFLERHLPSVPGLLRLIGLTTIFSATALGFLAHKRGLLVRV
Procedure: The samples were shaken at 110 rpm for 45 min at 37° C. Samples were then filtered through GF/B 96 well filter plates and washed twice with 300 μL assay buffer (PBS containing 0.1% BSA and 2% DMSO). Thereafter, filter plates were sealed and a Fuji Film Imaging Plate (BAS-SR2025) was placed on top. The imaging plate was analyzed after overnight exposition using a Fuji Film BAS-5000. […] IC50 values were calculated by Prism V6 (GraphPad) setting total binding to 100%.

MAO A = target: T2, MAO A (Mus musculus, UniProt Q64133); test: MAO A 18F-FEH competition assay in mouse brain homogenate; format: binding; set-up: Low affinity to MAO A (grade), mouse brain homogenate: key to the marks not given beside the values; details: for IC50: 18F-FEH competition, fluorine-19 derivatives
T2 construct: from tissue; host or cells: whole mouse brain homogenate
T2 sequence (Q64133 1-526): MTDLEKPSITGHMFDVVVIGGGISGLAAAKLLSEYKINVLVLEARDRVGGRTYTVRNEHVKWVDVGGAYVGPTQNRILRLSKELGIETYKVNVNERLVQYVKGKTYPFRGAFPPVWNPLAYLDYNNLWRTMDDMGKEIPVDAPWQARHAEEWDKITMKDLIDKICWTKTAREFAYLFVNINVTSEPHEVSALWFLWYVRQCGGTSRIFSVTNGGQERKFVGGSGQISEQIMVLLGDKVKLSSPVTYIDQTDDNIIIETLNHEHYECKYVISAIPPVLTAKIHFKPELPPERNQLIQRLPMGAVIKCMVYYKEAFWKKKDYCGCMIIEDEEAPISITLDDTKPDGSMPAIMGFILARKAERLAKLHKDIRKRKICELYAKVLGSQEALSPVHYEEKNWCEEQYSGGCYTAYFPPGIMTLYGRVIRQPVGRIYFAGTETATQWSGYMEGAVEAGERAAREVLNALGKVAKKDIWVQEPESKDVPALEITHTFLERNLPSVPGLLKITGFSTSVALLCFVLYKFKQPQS

[1] = PK studies in healthy mice (dynamic PET); format: in vivo, NMRI mice; set-up: Good brain uptake (grade) / Mouse PK Uptake (grade): key: −: poor; ∘: moderate; +: good; ++: very good; +++: excellent; for Fast washout from healthy brain (grade): key: −: poor; ∘: moderate; +: good; ++: very good; +++: excellent; for Good brain uptake (grade): key: −: poor; ∘: moderate; +: good; ++: very good; +++: excellent; for Low or minor de-fluorination (grade): key: −: poor; ∘: moderate; +: good; ++: very good; +++: excellent; for Low retention in healthy brain (grade): key: −: poor; ∘: moderate; +: good; ++: very good; +++: excellent
Procedure: NMRI mice (weight range 25-35 g) were injected intravenously with the ^18F-labeled compounds. Up to 150 μL of 1×PBS solution with 10%-15% EtOH or dilution medium ([…]) containing the ^18F-labeled compound (2-10 MBq) were injected. Anesthesia with isoflurane was induced before injection of the tracer and maintained during the image acquisition period. PET scans were performed using a SIEMENS INVEON small animal PET/CT scanner (Siemens, Knoxville, Tenn.). PET acquisition was started immediately before the radioactive dose was injected into the animal through the tail vein. Images were generated as dynamic scans for 60 minutes.
The peak uptake in the brain was set to 100% and washout curves were generated to evaluate the clearance of the activity from the normal brain (FIG. 2).

Chain of amyloid-beta (P05067 whole entry): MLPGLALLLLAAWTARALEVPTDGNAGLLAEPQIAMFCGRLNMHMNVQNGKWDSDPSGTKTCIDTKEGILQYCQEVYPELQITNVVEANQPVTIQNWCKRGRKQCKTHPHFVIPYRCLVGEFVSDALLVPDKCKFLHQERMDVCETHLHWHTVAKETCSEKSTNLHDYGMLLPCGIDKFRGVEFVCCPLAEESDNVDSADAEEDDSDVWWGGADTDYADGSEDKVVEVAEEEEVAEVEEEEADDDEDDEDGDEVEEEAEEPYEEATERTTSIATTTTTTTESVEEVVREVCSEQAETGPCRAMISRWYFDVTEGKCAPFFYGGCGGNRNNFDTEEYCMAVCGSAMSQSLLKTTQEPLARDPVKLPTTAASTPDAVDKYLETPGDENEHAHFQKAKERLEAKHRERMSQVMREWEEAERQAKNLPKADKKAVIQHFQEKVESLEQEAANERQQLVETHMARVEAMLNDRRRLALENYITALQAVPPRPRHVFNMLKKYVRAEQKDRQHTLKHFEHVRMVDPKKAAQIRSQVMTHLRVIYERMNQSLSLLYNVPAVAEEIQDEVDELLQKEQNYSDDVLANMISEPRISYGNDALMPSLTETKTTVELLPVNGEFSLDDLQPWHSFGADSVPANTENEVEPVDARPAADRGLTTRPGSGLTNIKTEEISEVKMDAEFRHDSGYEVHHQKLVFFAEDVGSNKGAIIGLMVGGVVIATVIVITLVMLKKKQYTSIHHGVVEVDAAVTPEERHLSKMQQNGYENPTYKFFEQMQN

SMILES: [18F]c1ncccc1-c1ccc2c(n1)[nH]c1ccncc12 [Compound ^18F-4]
- Low affinity to amyloid-beta (grade) (amyloid-beta; Table 1): +++^a)
- IC50 (amyloid-beta): > 1 µM
- High affinity to Tau (grade) (Tau; Table 1, IC50 in AD brain homogenate, fluorine-19 derivatives): +++
- IC50 (Tau): < 0.002 µM
- IC50 (MAO B): > 1 µM
- fold higher MAO B IC50 than compound 18F-1 (MAO B; HC brain homogenate): > 5 fold
- Low affinity to MAO B (grade) (MAO B; Table 1): +++
- IC50 (MAO A): 1.3 µM
- Low affinity to MAO A (grade), mouse brain homogenate (MAO A; Table 1): +++
- fold higher MAO A IC50 than compound 18F-1 (MAO A; whole mouse brain homogenate): 59 fold
- fold higher MAO A IC50 than compound 18F-2 (MAO A; whole mouse brain homogenate): 2.7 fold
- Fast washout from healthy brain (grade) ([1]; Table 1): +++
- Good brain uptake (grade) ([1]; Table 1): ++
- Low or minor de-fluorination (grade) ([1]; Table 1): +++
- Low retention in healthy brain (grade) ([1]; Table 1): +++
- fold faster washout from healthy brain than compound 18F-1 ([1]; mice): 3.2 fold
- fold faster washout from healthy brain than compound 18F-2 ([1]; mice): 2.0 fold
- fold less long-term retention in healthy brain than compound 18F-1 ([1]; mice): 4 fold
- fold less long-term retention in healthy brain than compound 18F-2 ([1]; mice): 3 fold
- De-fluorination in mice (in words) ([1]; mouse, in vivo): No de-fluorination

SMILES: Fc1ncccc1-c1ccc2c(n1)[nH]c1ccncc12 [Compound F-4]
- IC50 (amyloid-beta): > 1 µM
- high Tau binding (grade) (Tau; Table 2, fluorine-19 derivatives): +++
- IC50 (Tau): < 0.002 µM
- IC50 (MAO B): > 1 µM
- IC50 (MAO A): > 1 µM
- low MAO A binding (grade) (MAO A; Table 2, IC50 in mouse brain homogenate): +++
- Mouse PK De-fluorination (grade) ([1]; Table 2): +++
- Mouse PK Uptake (grade) ([1]; Table 2): ++
- Mouse PK Washout (grade) ([1]; Table 2): ++
- bone uptake in shoulder joint at 60 min (de-fluorination) ([1]; healthy mice, after iv injection): (<0.5% ID/g) ^f
- peak uptake in brain (tracer uptake in healthy mice after iv injection) ([1]; healthy mice, iv, PET): (5.8% ID/g)
- ratio of uptake peak/30 min (washout from healthy brain) ([1]; healthy mice, Table 1: ratio of uptake at 2 min and 30 min): (22)
